Laboratory results: ChEMBL document CHEMBL6092122, “Nonenzymatic Sequestering of Formaldehyde into the Antibiotic Methylene-Bridged Dimer Phaeochromycin F by Streptomyces sp. OUCMDZ-4982 as a Possible Multipronged Chemical Defense Mechanism” (J Nat Prod, 2024)
Converted amounts (≈) assume the structure as drawn. The source made the active and inactive calls. No cut-off for these calls is given here.

Legend:
[1] = test system: Streptomyces sp.; experiment: Protection against formaldehyde-induced toxicity in Streptomyces sp. OUCMDZ-4982 cultured in Gauze medium assessed as inhibition of bacterial growth incubated for 1 hr; format: functional, organism-based
[2] = test system: Streptomyces sp.; experiment: Protection against formaldehyde-induced toxicity in Streptomyces sp. OUCMDZ-4982 cultured in A1 medium assessed as decrease in bacterial growth incubated for 1 hr; format: functional, organism-based
[3] = test system: Streptomyces sp.; experiment: Protection against formaldehyde-induced toxicity in Streptomyces sp. OUCMDZ-4982 cultured in Gauze medium assessed as decrease in bacterial growth incubated for 1 hr; format: functional, organism-based
[4] = Drug metabolism in Staphylococcus aureus ATCC 6538 assessed as 3,3-methylenebis(4-hydroxy-6-methyl-2H-pyran-2-one) formation in presence of 2266E medium by HPLC analysis; format: ADME
[5] = test system: Pseudomonas aeruginosa; experiment: Antibacterial activity against Pseudomonas aeruginosa ATCC 10145 incubated for 24 hrs by microdilution method; format: functional, organism-based
[6] = test system: Escherichia coli; experiment: Antibacterial activity against Escherichia coli ATCC 11175 incubated for 24 hrs by microdilution method; format: functional, organism-based
[7] = test system: Candida albicans; experiment: Antifungal activity against Candida albicans ATCC 10231 incubated for 24 hrs by microdilution method; format: functional, organism-based
[8] = test system: Nakaseomyces glabratus; experiment: Antifungal activity against Candida glabrata ATCC 2001 incubated for 24 hrs by microdilution method; format: functional, organism-based
[9] = test system: Staphylococcus aureus; experiment: Antibacterial activity against Staphylococcus aureus ATCC 6538 in absence of HCHO by microdilution method; format: functional
[10] = test system: Staphylococcus aureus; experiment: Antibacterial activity against methicillin-resistant Staphylococcus aureus ATCC 43300 in absence of HCHO by microdilution method; format: functional
[11] = test system: Staphylococcus aureus; experiment: Antibacterial activity against Staphylococcus aureus ATCC 43300 incubated for 24 hrs by microdilution method; format: functional
[12] = Chemical reactivity of compound in formaldehyde assessed as (1S,2R,18R,19R,22S,25R,28R,40S)-48-[(2S,3R,4S,5S,6R)-3-[(2S,4S,5S,6S)-4-amino-5-hydroxy-4,6-dimethyl-tetrahydropyran-2-yl]oxy-4,5-dihydroxy-6-(hydroxymethyl)tetrahydropyran-2-yl]oxy-22-(2-amino-2-oxo-ethyl)-5,15-dichloro-2,18,32,35,37-pentahydroxy-19-[(4R)-4-isobutyl-3-methyl-5-oxo-imidazolidin-1-yl]-20,23,26,42,44-pentaoxo-7,13-dioxa-21, …; format: physicochemical
[13] = Chemical reactivity of compound in formaldehyde assessed as (4R,4aR,5aS,12aR)-9-(3-(tert-butyl)-5-oxoimidazolidin-1-yl)-4,7-bis(dimethylamino)-3,10,12,12a-tetrahydroxy-1,11-dioxo-1,4,4a,5,5a,6,11,12a-octahydrotetracene-2-carboxamide formation; format: physicochemical
[14] = Chemical reactivity of compound in acetaldehyde assessed as (1S,2R,18R,19R,22S,25R,28R,40S)-48-[(2S,3R,4S,5S,6R)-3-[(2S,4S,5S,6S)-4-amino-5-hydroxy-4,6-dimethyl-tetrahydropyran-2-yl]oxy-4,5-dihydroxy-6-(hydroxymethyl)tetrahydropyran-2-yl]oxy-22-(2-amino-2-oxo-ethyl)-5,15-dichloro-2,18,32,35,37-pentahydroxy-19-[(2R,4R)-4-isobutyl-2,3-dimethyl-5-oxo-imidazolidin-1-yl]-20,23,26,42,44-pentaoxo-7,13-di …; format: physicochemical
[15] = test system: Staphylococcus aureus; experiment: Antibacterial activity against methicillin-resistant Staphylococcus aureus ATCC 43300 incubated for 24 hrs by microdilution method; format: functional

Compound | Activity [5] | Activity [6] | Activity [7] | Activity [8] | other results
Cc1cc(O)cc(=O)o1 [4-HYDROXY-6-METHYLPYRAN-2-ONE] | – | – | – | – | Activity [1]: Active; Activity [2]: Active; Activity [3]: inactive; Drug metabolism [4]: metabolite_detected
Cc1cc(=O)c2c(Cc3cc(O)c(Cc4c(O)cc(Cc5cc(O)cc6c5C(=O)CC(C)(O)O6)oc4=O)c(=O)o3)cccc2o1 (stereo not drawn) | inactive | inactive | inactive | inactive | –
Cc1cc(=O)c2c(Cc3cc(O)c(C(c4ccccc4)c4c(O)cc(Cc5cccc6oc(C)cc(=O)c56)oc4=O)c(=O)o3)cccc2o1 | inactive | inactive | inactive | inactive | –
CC(C)C[C@@H]1C(=O)N([C@H]2C(=O)N[C@@H](CC(N)=O)C(=O)N[C@H]3C(=O)N[C@H]4C(=O)N[C@H](C(=O)N[C@H](C(=O)O)c5cc(O)cc(O)c5-c5cc4ccc5O)[C@H](O)c4ccc(c(Cl)c4)Oc4cc3cc(c4O[C@@H]3O[C@H](CO)[C@@H](O)[C@H](O)[C@H]3O[C@H]3C[C@](C)(N)[C@H](O)[C@H](C)O3)Oc3ccc(cc3Cl)[C@H]2O)CN1C | – | – | – | – | MIC [9]: 64 µg/mL (≈ 43.8 µM); MIC [10]: 64 µg/mL (≈ 43.8 µM)
CCOC(=O)CC=C(c1c(O)cc(C)oc1=O)c1c(O)cc(C)oc1=O | inactive | inactive | inactive | inactive | –
Cc1cc(=O)c2c(Cc3cc(O)c(C(C)c4c(O)cc(Cc5cccc6oc(C)cc(=O)c56)oc4=O)c(=O)o3)cccc2o1 | inactive | inactive | inactive | inactive | –
CC(C)C[C@@H]1C(=O)N([C@H]2C(=O)N[C@@H](CC(N)=O)C(=O)N[C@H]3C(=O)N[C@H]4C(=O)N[C@H](C(=O)N[C@H](C(=O)O)c5cc(O)cc(O)c5-c5cc4ccc5O)[C@H](O)c4ccc(c(Cl)c4)Oc4cc3cc(c4O[C@@H]3O[C@H](CO)[C@@H](O)[C@H](O)[C@H]3O[C@H]3C[C@](C)(N)[C@H](O)[C@H](C)O3)Oc3ccc(cc3Cl)[C@H]2O)[C@H](C)N1C | – | – | – | – | MIC [9]: 64 µg/mL (≈ 43.4 µM); MIC [10]: 32 µg/mL (≈ 21.7 µM)
CCOC(=O)/C=C/C(c1c(O)cc(C)oc1=O)c1c(O)cc(C)oc1=O | inactive | inactive | inactive | inactive | –
CN(C)c1cc(NC(=O)CNC(C)(C)C)c(O)c2c1C[C@H]1C[C@H]3[C@H](N(C)C)C(O)=C(C(N)=O)C(=O)[C@@]3(O)C(O)=C1C2=O [TIGECYCLINE] | – | – | – | – | MIC [11]: 0.5 µg/mL (≈ 0.854 µM); Activity [12]: Active; Activity [13]: Active; Activity [14]: Active; MIC [15]: 0.5 µg/mL (≈ 0.854 µM)
Cc1cc(=O)c2c(Cc3cc(O)c(Cc4c(O)cc(Cc5cccc(O)c5)oc4=O)c(=O)o3)cccc2o1 | inactive | inactive | inactive | inactive | –
CC(=O)CC(c1c(O)cc(Cc2cccc3oc(C)cc(=O)c23)oc1=O)c1c(O)cc(Cc2cccc3oc(C)cc(=O)c23)oc1=O | inactive | inactive | inactive | inactive | –
CN(C)c1cc(N2CN(C(C)(C)C)CC2=O)c(O)c2c1C[C@H]1C[C@H]3[C@H](N(C)C)C(O)=C(C(N)=O)C(=O)[C@@]3(O)C(O)=C1C2=O (single isomer, unassigned) | – | – | – | – | MIC [11]: 1 µg/mL (≈ 1.67 µM); MIC [15]: 32 µg/mL (≈ 53.5 µM)
